The source of these data is patent publication US5661146A, “Substituted dibenzoxazepine urea compounds, pharmaceutical compositions and methods of use” (G.D. Searle & Co., priority 1995, dated 1997).

Test [1] addresses T1, prostaglandin E2 -induced contractions of segments of guinea pig ileum (Cavia porcellus, UniProt A0A286XHJ6).
T1 construct: Segments of ileum about 2 cm long were then cut and mounted in a 10 mL tissue bath; from tissue; host or cells: ileum segments of male albino guinea pigs
T1 sequence (A0A286XHJ6 1-405): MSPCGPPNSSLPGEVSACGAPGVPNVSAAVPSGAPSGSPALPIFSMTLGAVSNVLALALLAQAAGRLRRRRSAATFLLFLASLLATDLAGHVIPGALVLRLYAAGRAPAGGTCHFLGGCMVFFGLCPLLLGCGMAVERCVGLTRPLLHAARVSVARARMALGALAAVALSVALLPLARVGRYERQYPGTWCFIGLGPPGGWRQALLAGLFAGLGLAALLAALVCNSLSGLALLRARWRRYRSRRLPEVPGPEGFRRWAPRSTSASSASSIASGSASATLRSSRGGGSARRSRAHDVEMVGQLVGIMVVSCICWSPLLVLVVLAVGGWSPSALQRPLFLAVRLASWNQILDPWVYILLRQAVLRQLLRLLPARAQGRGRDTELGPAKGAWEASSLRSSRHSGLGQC
In words: Prostaglandin (PGE) Antagonism Assay (prostaglandin E2-induced contractions of guinea pig ileum segments). The settings on record: initial test compound concentration 3 micromolar. An excerpt: The ilea were then quickly removed from the guinea pigs and placed in a modified Tyrode solution, a solution which is known to those skilled in the art, containing one-half of the usual amount of magnesium ions. […] Data for a control prostaglandin E2 dose response curve plotting concentration of prostaglandin E2 versus the intensity of contractions, detected isotonically, was then obtained by experimentally adjusting the dose of the prostaglandin E2 being injected into the tissue bath, in a manner known by those of skill in the art. Solutions or suspensions containing an initial concentration (3 micromolar) of a test compound in modified Tyrode solution ("test solutions/suspensions") were then separately substituted for the control bath solution. Each test solution/suspension was then kept in constant contact with the ileum tissue, except for brief periods to drain the bath in preparation for rinsing with fresh test solution/suspension. A second prostaglandin E2 dose response curve was then generated for prostaglandin E2 in the presence of a test compound.

Test [2] has as its system mice. In words: Writhing Assay (PBQ-induced writhing, analgesic activity in mice). It is filed as in vivo, mouse (Charles River male albino mice). The settings on record: among compounds of the invention tested. An excerpt: The Writhing Assay is one of the most widely-used experimental procedures for measuring the analgesic activity of different narcotic and nonnarcotic analgesic agents, and involves the continuous, chemically-induced pain of visceral origin to an animal, such as a mouse or rat. [Gyires et al., Arch. int. […] Drugs which reduce the number of writhes of the animal appear to restore the normal nociceptive threshold of the animal. […] Charles River male albino mice, weighing 20 to 30 grams, were used in this assay. […] Ten mice which were given saline in place of a test compound of the invention were used as a control group. Five minutes later, each mouse was individually placed into a glass beaker for observation, and the number of writhes occurring during the following ten-minute period was counted. […] The standard initial screening dose of a test compound employed in this assay was 30 mpk […].

With `CCN(CC)CCCCCOC(=O)N1Cc2ccccc2Oc2ccc(Cl)cc21` [Example 29, 5-(diethylamino)pentyl 8-chlorodibenz[b,f]-[1,4]oxazepine-10(11H)-carboxylate], in test [1], the “PGE IN GUINEA PIG ILEUM, dose ratio given as activity word” value is listed as “Active”. Regarding `COC(=O)[C@H](C)NC(=O)N1Cc2ccccc2Oc2ccc(Cl)cc21` [Example 32, methyl (L)-2R-[[(8-chlorodibenz[b,f][1,4]oxazepine-10-(11H)-yl)carbonyl]amino]propanoate], in test [2], the “potency ranking in the Writhing Assay (in words)” value was “most potent compound of the invention tested in this assay”.
